Test results: patent publication US9273046B2, “Fused tricyclic compounds as Raf kinase inhibitors” (BeiGene, LTD., priority 2011, dated 2016)
Like-named read-outs stand apart in the source and are kept apart here.

Experiments:
B-Raf (V600E) = B-Raf (V600E) (Homo sapiens (Human), UniProt P15056, V600E); assay: Raf IC50 assay, time-resolved fluorescence energy transfer (TR-FRET), B-Raf; assay type: biochemical
Experimental: The enzyme was incubated with the compounds at room temperature for 60 minutes and the reactions were initiated by the addition of ATP and GST-MEK1. […] Plates were sealed and incubated at room temperature for 2 hours, and then the TR-FRET signals were read on BMG PHERAstar FS instrument. The IC50 for each compound was calculated by non linear regression by Graphpad Prism software.

C-Raf (Y340D/Y341D) = C-Raf (Y340D/Y341D) (Homo sapiens (Human), UniProt P04049, Y340D/Y341D); assay: Raf IC50 assay, time-resolved fluorescence energy transfer (TR-FRET), C-Raf; assay type: biochemical; conditions: 0.5 nM C-Raf, 0.1 mM ATP, GST-tagged MEK1 substrate, 60 min preincubation
Experimental: The assay was carried out in reactions (10 μL) containing 0.0625 nM B-Raf or 0.5 nM C-Raf, 25 mM Tris pH7.4, 10 mM MgCl2, 0.5 mM EGTA, 0.5 mM […], 5 mM beta-glycerophosphate, 0.01% Triton X-100, 2.5 mM DTT, 0.1% BSA, 0.1 mM ATP, 13.7 nM GST-tagged MEK1 (Full-length protein with K97R mutation, recombinant protein purified from bacterial expression system) and 0-5 μM compounds disclosed herein (final concentration of 1% DMSO). The enzyme was incubated with the compounds at room temperature for 60 minutes and the reactions were initiated by the addition of ATP and GST-MEK1. After incubating at room temperature for 60 minutes, an equal volume of stop buffer containing 25 mM Tris pH7.4, 400 mM KF, 50 mM EDTA, 0.01% BSA, 0.01% Triton X-100, 1 test of Eu3+ Cryptate-conjugated rabbit polyclonal antibody anti-Phospho MEK1/2 (Ser217/221) and 1 test of d2-conjugated mouse monoclonal antibody anti-glutathione S-transferase was added to stop the reactions. Plates were sealed and incubated at room temperature for 2 hours, and then the TR-FRET signals were read on BMG PHERAstar FS instrument. The IC50 for each compound was calculated by non linear regression by Graphpad Prism software.

[1] = 0.0625 nM B-Raf, 0.1 mM ATP, GST-tagged MEK1 substrate, 60 min preincubation, read-out: B-Raf (V600E) IC50

Chain of C-Raf (Y340D/Y341D) (P04049 whole entry Y340D/Y341D): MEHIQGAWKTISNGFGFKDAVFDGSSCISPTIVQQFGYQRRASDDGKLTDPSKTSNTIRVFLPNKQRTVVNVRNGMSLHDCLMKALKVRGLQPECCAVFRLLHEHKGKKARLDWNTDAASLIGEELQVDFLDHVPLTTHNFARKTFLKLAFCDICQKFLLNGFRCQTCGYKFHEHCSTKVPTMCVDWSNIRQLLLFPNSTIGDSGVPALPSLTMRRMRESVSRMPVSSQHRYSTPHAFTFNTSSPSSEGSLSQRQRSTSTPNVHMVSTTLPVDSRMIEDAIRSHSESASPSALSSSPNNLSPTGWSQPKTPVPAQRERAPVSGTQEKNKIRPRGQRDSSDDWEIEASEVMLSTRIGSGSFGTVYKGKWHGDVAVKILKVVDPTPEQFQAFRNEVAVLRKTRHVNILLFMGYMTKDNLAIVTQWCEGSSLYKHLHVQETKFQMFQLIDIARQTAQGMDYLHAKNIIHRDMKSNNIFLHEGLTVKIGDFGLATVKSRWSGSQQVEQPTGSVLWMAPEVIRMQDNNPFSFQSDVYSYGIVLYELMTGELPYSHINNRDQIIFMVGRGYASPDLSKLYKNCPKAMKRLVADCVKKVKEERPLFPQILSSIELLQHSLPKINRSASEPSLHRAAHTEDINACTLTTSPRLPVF
Chain of B-Raf (V600E) (P15056 whole entry V600E): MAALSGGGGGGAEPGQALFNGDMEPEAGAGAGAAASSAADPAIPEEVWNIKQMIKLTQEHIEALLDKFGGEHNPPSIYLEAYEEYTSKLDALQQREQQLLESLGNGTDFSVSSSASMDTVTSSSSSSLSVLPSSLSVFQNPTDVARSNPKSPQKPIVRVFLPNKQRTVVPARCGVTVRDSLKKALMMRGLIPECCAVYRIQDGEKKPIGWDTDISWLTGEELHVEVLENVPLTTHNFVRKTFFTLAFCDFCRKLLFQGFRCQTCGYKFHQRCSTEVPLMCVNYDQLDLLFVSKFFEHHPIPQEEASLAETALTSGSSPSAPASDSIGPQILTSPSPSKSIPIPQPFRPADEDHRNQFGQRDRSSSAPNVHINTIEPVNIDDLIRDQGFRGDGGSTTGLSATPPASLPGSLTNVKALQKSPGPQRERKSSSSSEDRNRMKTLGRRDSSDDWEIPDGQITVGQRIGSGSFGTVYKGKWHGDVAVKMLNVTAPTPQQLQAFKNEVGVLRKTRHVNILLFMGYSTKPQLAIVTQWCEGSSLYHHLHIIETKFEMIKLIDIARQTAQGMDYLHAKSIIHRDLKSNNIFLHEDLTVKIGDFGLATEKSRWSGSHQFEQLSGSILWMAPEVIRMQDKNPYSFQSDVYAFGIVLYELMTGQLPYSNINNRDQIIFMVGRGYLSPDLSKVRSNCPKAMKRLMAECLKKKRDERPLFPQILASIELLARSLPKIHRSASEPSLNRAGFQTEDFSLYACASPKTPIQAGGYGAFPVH

SMILES | IC50 (B-Raf (V600E); [1]) [nM] | IC50 (C-Raf (Y340D/Y341D)) [nM] | IC50 (B-Raf (V600E)) [nM]
O=C1CCc2c(Oc3ccc4c(c3)C3C(C4)C3c3nc4ccccc4[nH]3)ccnc2N1 (racemic) [Compound 1.1, (±)-exo-5-((1-(1H-benzo[d]imidazol-2-yl)-1,1a,6,6a-tetrahydrocyclopropa[a]inden-3-yl)oxy)-3,4-dihydro-1,8-naphthyridin-2(1H)-one] | 11 |  | 
O=C1CCc2c(Oc3ccc4c(c3)C3C(C4)C3c3nc4ccccc4s3)ccnc2N1 (racemic) [Compound 1.3, (±)-exo-5-((1-(benzo[d]thiazol-2-yl)-1,1a,6,6a-tetrahydrocyclopropa[a]inden-3-yl)oxy)-3,4-dihydro-1,8-naphthyridin-2(1H)-one] | 88 | 5.5 | 
O=C1CCc2c(Oc3ccc4c(c3)C3C(O4)C3c3nc4ccccc4[nH]3)ccnc2N1 (racemic) [Compound 2.1, (±)-exo-5-((1-(1H-benzo[d]imidazol-2-yl)-1a,6b-dihydro-1H-cyclopropa[b]benzofuran-5-yl)oxy)-3,4-dihydro-1,8-naphthyridin-2(1H)-one] | 3.1 | 0.3 | 
O=C1CCc2c(Oc3ccc4c(c3)C3C(O4)C3c3nc4ccc(O)cc4[nH]3)ccnc2N1 (racemic) [Compound 2.27, (±)-exo-5-((1-(6-hydroxy-1H-benzo[d]imidazol-2-yl)-1a,6b-dihydro-1H-cyclopropa[b]benzofuran-5-yl)oxy)-3,4-dihydro-1,8-naphthyridin-2(1H)-one] | 2.5 | < 0.25 | 
O=C1CCc2c(Oc3ccc4c(c3)C3C(O4)C3c3nc(-c4ccccc4)no3)ccnc2N1 (racemic) [Compound 2.29, (±)-exo-5-((1-(3-phenyl-1,2,4-oxadiazol-5-yl)-1a,6b-dihydro-1H-cyclopropa[b]benzofuran-5-yl)oxy)-3,4-dihydro-1,8-naphthyridin-2(1H)-one] | 3.2 | < 0.25 | 
O=C1CCc2c(Oc3ccc4c(c3)C3C(O4)C3c3nc(-c4ccccc4)c[nH]3)ccnc2N1 (racemic) [Compound 2.30, (±)-exo-5-((1-(4-phenyl-1H-imidazol-2-yl)-1a,6b-dihydro-1H-cyclopropa[b]benzofuran-5-yl)oxy)-3,4-dihydro-1,8-naphthyridin-2(1H)-one] | 0.72 | < 0.25 | 
O=C1CCc2c(Oc3ccc4c(c3)C3C(O4)C3c3nc4cc(C(F)(F)F)ccc4n3CCO)ccnc2N1 (racemic) [Compound 2.34, (±)-exo-5-((1-(1-(2-hydroxyethyl)-5-(trifluoromethyl)-1H-benzo[d]imidazol-2-yl)-1a,6b-dihydro-1H-cyclopropa[b]benzofuran-5-yl)oxy)-3,4-dihydro-1,8-naphthyridin-2(1H)-one] | 30 |  | 
O=C1CCc2c(Oc3cc4c(cc3Cl)OC3C(c5nc6ccc(C(F)(F)F)cc6[nH]5)C43)ccnc2N1 (racemic) [Compound 2.36, (±)-exo-5-((4-chloro-1-(6-(trifluoromethyl)-1H-benzo[d]imidazol-2-yl)-1a,6b-dihydro-1H-cyclopropa[b]benzofuran-5-yl)oxy)-3,4-dihydro-1,8-naphthyridin-2(1H)-one] | 117 | 32 | 
CNC(=O)c1cc(Oc2ccc3c(c2)C2C(O3)C2c2nc3ccc(C(F)(F)F)cc3[nH]2)ccn1 (racemic) [Compound 3.1, (±)-exo-N-methyl-4-((1-(6-(trifluoromethyl)-1H-benzo[d]imidazol-2-yl)-1a,6b-dihydro-1H-cyclopropa[b]benzofuran-5-yl)oxy)picolinamide] |  | 6.5 | 
FC(F)(F)c1ccc2nc(C3C4Oc5ccc(Oc6ccncn6)cc5C43)[nH]c2c1 (racemic) [Compound 3.2, (±)-exo-2-(5-(pyrimidin-4-yloxy)-1a,6b-dihydro-1H-cyclopropa[b]benzofuran-1-yl)-6-(trifluoromethyl)-1H-benzo[d]imidazole] |  | 223 | 
FC(F)(F)c1ccc2nc(C3C4Oc5ccc(Oc6ccnc7[nH]ccc67)cc5C43)[nH]c2c1 (racemic) [Compound 3.3, (±)-exo-2-(5-((1H-pyrrolo[2,3-b]pyridin-4-yl)oxy)-1a,6b-dihydro-1H-cyclopropa[b]benzofuran-1-yl)-6-(trifluoromethyl)-1H-benzo[d]imidazole] | 522 | 104 | 
FC(F)(F)c1ccc2nc(C3C4Oc5ccc(Oc6ccnc(-c7nc(C(F)(F)F)c[nH]7)c6)cc5C43)[nH]c2c1 (racemic) [Compound 3.4, (±)-exo-6-(trifluoromethyl)-2-(5-((2-(4-(trifluoromethyl)-1H-imidazol-2-yl)pyridin-4-yl)oxy)-1a,6b-dihydro-1H-cyclopropa[b]benzofuran-1-yl)-1H-benzo[d]imidazole] | 291 | 56 | 
FC(F)(F)c1ccc2nc(C3C4Oc5ccc(Oc6ccncc6)cc5C43)[nH]c2c1 (racemic) [Compound 3.6, (±)-exo-2-(5-(pyridin-4-yloxy)-1a,6b-dihydro-1H-cyclopropa[b]benzofuran-1-yl)-6-(trifluoromethyl)-1H-benzo[d]imidazole] | 518 | 86 | 
O=C1Nc2nccc(Oc3ccc4c(c3)C3C(O4)C3c3nc4ccc(C(F)(F)F)cc4[nH]3)c2CO1 (racemic) [Compound 3.7, (±)-exo-5-((1-(6-(trifluoromethyl)-1H-benzo[d]imidazol-2-yl)-1a,6b-dihydro-1H-cyclopropa[b]benzofuran-5-yl)oxy)-1H-pyrido[2,3-d][1,3]oxazin-2(4H)-one] | 26 | 3.2 | 
O=C1CCc2c(Oc3ccc4c(c3)C3C(C4)C3C(=O)O)ccnc2N1 (racemic) [Intermediate I, (±)-exo-3-((7-Oxo-5,6,7,8-tetrahydro-1,8-naphthyridin-4-yl)oxy)-1,1a,6,6a-tetrahydrocyclopropa[a]indene-1-carboxylic acid] |  | > 5000 | > 5000
O=C1CCc2c(Oc3ccc4c(c3)C3C(O4)C3C(=O)O)ccnc2N1 (racemic) [Intermediate II, (±)-exo-5-((7-Oxo-5,6,7,8-tetrahydro-1,8-naphthyridin-4-yl)oxy)-1a,6b-dihydro-1H-cyclopropa[b]benzofuran-1-carboxylic acid] |  | 2910 | > 5000

SMILES | IC50 (B-Raf (V600E); [1]) [nM] | IC50 (C-Raf (Y340D/Y341D)) [nM] | IC50 (B-Raf (V600E)) [nM]
O=C1CCc2c(Oc3ccc4c(c3)[C@H]3[C@@H](O4)[C@@H]3c3nc4ccc(C(F)(F)F)cc4[nH]3)ccnc2N1 [Compound 2.2a] | 6.7 | 1.2 | 
O=C1CCc2c(Oc3ccc4c(c3)[C@@H]3[C@H](O4)[C@H]3c3nc4ccc(C(F)(F)F)cc4[nH]3)ccnc2N1 [Compound 2.2b, 5-(((1R,1aS,6bR)-1-(6-(trifluoromethyl)-1H-benzo[d]imidazol-2-yl)-1a,6b-dihydro-1H-cyclopropa[b]benzofuran-5-yl)oxy)-3,4-dihydro-1,8-naphthyridin-2(1H)-one] | 53 | 8.8 | 
Cc1cc2[nH]c([C@@H]3[C@H]4Oc5ccc(Oc6ccnc7c6CCC(=O)N7)cc5[C@H]43)nc2cc1F [Compound 2.4a] |  | 0.54 | 
O=C1CCc2c(Oc3ccc4c(c3)[C@@H]3[C@H](O4)[C@H]3c3nc4cc(Cl)c(C(F)(F)F)cc4[nH]3)ccnc2N1 [Compound 2.5a] |  | 21 | 
O=C1CCc2c(Oc3ccc4c(c3)[C@H]3[C@@H](O4)[C@@H]3c3nc4cc(Cl)c(C(F)(F)F)cc4[nH]3)ccnc2N1 [Compound 2.5b] |  | 2.5 | 
N#Cc1ccc2nc(C3C4Oc5ccc(Oc6ccnc7c6CCC(=O)N7)cc5C43)[nH]c2c1 (stereo not drawn) [Compound 2.6] | 22 | 4.5 | 
O=C1CCc2c(Oc3ccc4c(c3)C3C(O4)C3c3nc4ccc(F)cc4[nH]3)ccnc2N1 (stereo not drawn) [Compound 2.7] | 10 | 2.1 | 
Cc1ccc2nc(C3C4Oc5ccc(Oc6ccnc7c6CCC(=O)N7)cc5C43)[nH]c2c1 (stereo not drawn) [Compound 2.8] | 3.7 | 0.71 | 
O=C1CCc2c(Oc3ccc4c(c3)C3C(O4)C3c3nc4ccncc4[nH]3)ccnc2N1 (stereo not drawn) [Compound 2.9] | 42 | 4.5 | 
O=C1CCc2c(Oc3ccc4c(c3)C3C(O4)C3c3nc4c(Cl)cc(C(F)(F)F)cc4[nH]3)ccnc2N1 (stereo not drawn) [Compound 2.10] | 80 | 25 | 
O=C1CCc2c(Oc3ccc4c(c3)C3C(O4)C3c3nc4cc(F)c(F)cc4[nH]3)ccnc2N1 (stereo not drawn) [Compound 2.11] | 5.9 | 3.3 | 
O=C1CCc2c(Oc3ccc4c(c3)C3C(O4)C3c3nc4ccc(Cl)cc4[nH]3)ccnc2N1 (stereo not drawn) [Compound 2.12] | 12 | 4.1 | 
O=C1CCc2c(Oc3ccc4c(c3)C3C(O4)C3c3nc4ccc(Br)cc4[nH]3)ccnc2N1 (stereo not drawn) [Compound 2.13] | 7.2 | 1.7 | 
O=C1CCc2c(Oc3ccc4c(c3)C3C(O4)C3c3nc4ccc(OC(F)(F)F)cc4[nH]3)ccnc2N1 (stereo not drawn) [Compound 2.14] | 28 | 9.7 | 
O=C1CCc2c(Oc3ccc4c(c3)C3C(O4)C3c3nc4cc5c(cc4[nH]3)CCC5)ccnc2N1 (stereo not drawn) [Compound 2.21] | 1.2 |  | 
